{
  "source": "patent US9114149B2",
  "about": "“[CU(thp)4]n[X]-n compounds for the treatment of a broad range of human solid tumors, including refractory tumors” (Universita Degli Studi Di Padova, priority 2011, dated 2015)",
  "key": {"OE19": {"system": "OE19", "experiment": "MTT cytotoxicity, OE19 (oesophagus/gastric cardia)", "assay_type": "cell-based, human", "settings": "MTT test, 72 hrs", "source_text": "(§1) The in vitro antitumor activity of CP had been deeply evaluated in several human cancer cell lines by in vitro cytotoxicity assays. CP cytotoxicity has been detected in a large panel of human cell lines derived from a wide variety of solid tumors, including refractory tumors. In Table 1, the cytotoxicity parameters IC50 (that is the median growth inhibitory concentrations calculated from dose-survival curves via MTT test) are tabulated.\n(§2) Cell lines representative of lung (H157, U1810, U1285, Calu-1), pancreas (MIA PaCa-2, BxPC-3, AsPC-1, Capan-1), liver (Huh-7, Hep 3B, SK-Hep-1), oesophagus (OE33, OE21), oesophagus/gastric cardia (OE19), stomach (BGC-823, AGS), colon (HCT-116, T84, COLO 205), breast (MDA-MB-231, SK-BR-3), cervix (CaSki, C-33 A) ovarian (A2780, SK-OV-3, IGROV1), prostate (LnCaP, PC-3) cancers along with melanoma (MEWO, G361, C-32), neuroblastoma (SH-SY5Y, SK-N-AS, IMR-32) and osteosarcoma (U-2 OS, MG-63) have been treated with increasing concentration of CP for 72 hrs."}, "MIA PaCa-2": {"system": "MIA PaCa-2", "experiment": "MTT cytotoxicity, MIA PaCa-2 (pancreas)", "assay_type": "cell-based, human", "settings": "MTT test, 72 hrs", "source_text": "as §1, §2"}, "[1]": {"system": "human colon adenocarcinoma cells resistant (HCT-116 OXP) to OXP"}, "C-32": {"system": "C-32", "experiment": "MTT cytotoxicity, C-32 (skin)", "assay_type": "cell-based, human", "settings": "MTT test, 72 hrs", "source_text": "as §1, §2"}, "AGS": {"system": "AGS", "experiment": "MTT cytotoxicity, AGS (stomach)", "assay_type": "cell-based, human", "settings": "MTT test, 72 hrs", "source_text": "as §1, §2"}, "G361": {"system": "G361", "experiment": "MTT cytotoxicity, G361 (skin)", "assay_type": "cell-based, human", "settings": "MTT test, 72 hrs", "source_text": "as §1, §2"}, "U-2 OS": {"system": "U-2 OS", "experiment": "MTT cytotoxicity, U-2 OS (bone)", "assay_type": "cell-based, human", "settings": "MTT test, 72 hrs", "source_text": "as §1, §2"}, "PC-3": {"system": "PC-3", "experiment": "MTT cytotoxicity, PC-3 (prostate)", "assay_type": "cell-based, human", "settings": "MTT test, 72 hrs", "source_text": "as §1, §2"}, "[2]": {"system": "human lung (MRC-5) fibroblasts", "experiment": "Cytotoxicity towards human non-tumor cells, MRC-5", "assay_type": "cell-based", "settings": "MRC-5 human lung fibroblasts (non-tumor); MTT test, 72 hrs"}, "MDA-MB-231": {"system": "MDA-MB-231", "experiment": "MTT cytotoxicity, MDA-MB-231 (breast)", "assay_type": "cell-based, human", "settings": "MTT test, 72 hrs", "source_text": "as §1, §2"}, "SK-OV-3": {"system": "SK-OV-3", "experiment": "MTT cytotoxicity, SK-OV-3 (ovary)", "assay_type": "cell-based, human", "settings": "MTT test, 72 hrs", "source_text": "as §1, §2"}, "HCT-116": {"system": "HCT-116", "experiment": "MTT cytotoxicity, HCT-116 (colon)", "assay_type": "cell-based, human", "settings": "MTT test, 72 hrs", "source_text": "as §1, §2"}, "Calu-1": {"system": "Calu-1", "experiment": "MTT cytotoxicity, Calu-1 (lung)", "assay_type": "cell-based, human", "settings": "MTT test, 72 hrs", "source_text": "as §1, §2"}, "IGROV1": {"system": "IGROV1", "experiment": "MTT cytotoxicity, IGROV1 (ovary)", "assay_type": "cell-based, human", "settings": "MTT test, 72 hrs", "source_text": "as §1, §2"}, "[3]": {"system": "human colon adenocarcinoma cells sensitive (HCT-116)", "experiment": "Cross resistance MTT test, HCT-116 (OXP sensitive)", "assay_type": "cell-based", "settings": "72 h, probit analysis"}, "[4]": {"system": "human foreskin (HFFF2) fibroblasts", "experiment": "Cytotoxicity towards human non-tumor cells, HFFF2", "assay_type": "cell-based", "settings": "MTT test, 72 hrs"}, "CaSki": {"system": "CaSki", "experiment": "MTT cytotoxicity, CaSki (cervix)", "assay_type": "cell-based, human", "settings": "MTT test, 72 hrs", "source_text": "as §1, §2"}, "AsPC-1": {"system": "AsPC-1", "experiment": "MTT cytotoxicity, AsPC-1 (pancreas)", "assay_type": "cell-based, human", "settings": "MTT test, 72 hrs", "source_text": "as §1, §2"}, "SK-Hep-1": {"system": "SK-Hep-1", "experiment": "MTT cytotoxicity, SK-Hep-1 (liver)", "assay_type": "cell-based, human", "settings": "MTT test, 72 hrs", "source_text": "as §1, §2"}, "H157": {"system": "H157", "experiment": "MTT cytotoxicity, H157 (lung)", "assay_type": "cell-based, human", "settings": "MTT test, 72 hrs", "source_text": "as §1, §2"}, "A2780": {"system": "A2780", "experiment": "MTT cytotoxicity, A2780 (ovary)", "assay_type": "cell-based, human", "settings": "MTT test, 72 hrs", "source_text": "as §1, §2"}, "SK-BR-3": {"system": "SK-BR-3", "experiment": "MTT cytotoxicity, SK-BR-3 (breast)", "assay_type": "cell-based, human", "settings": "MTT test, 72 hrs", "source_text": "as §1, §2"}, "MEWO": {"system": "MEWO", "experiment": "MTT cytotoxicity, MEWO (skin)", "assay_type": "cell-based, human", "settings": "MTT test, 72 hrs", "source_text": "as §1, §2"}, "Capan-1": {"system": "Capan-1", "experiment": "MTT cytotoxicity, Capan-1 (pancreas)", "assay_type": "cell-based, human", "settings": "MTT test, 72 hrs", "source_text": "as §1, §2"}, "BxPC-3": {"system": "BxPC-3", "experiment": "MTT cytotoxicity, BxPC-3 (pancreas)", "assay_type": "cell-based, human", "settings": "MTT test, 72 hrs", "source_text": "as §1, §2"}, "Hep 3B": {"system": "Hep 3B", "experiment": "MTT cytotoxicity, Hep 3B (liver)", "assay_type": "cell-based, human", "settings": "MTT test, 72 hrs", "source_text": "as §1, §2"}, "COLO 205": {"system": "COLO 205", "experiment": "MTT cytotoxicity, COLO 205 (colon)", "assay_type": "cell-based, human", "settings": "MTT test, 72 hrs", "source_text": "as §1, §2"}, "Huh-7": {"system": "Huh-7", "experiment": "MTT cytotoxicity, Huh-7 (liver)", "assay_type": "cell-based, human", "settings": "MTT test, 72 hrs", "source_text": "as §1, §2"}, "T84": {"system": "T84", "experiment": "MTT cytotoxicity, T84 (colon)", "assay_type": "cell-based, human", "settings": "MTT test, 72 hrs", "source_text": "as §1, §2"}, "[5]": {"system": "CDDP sensitive and resistant human cancer cell lines", "settings": "also CDDP resistant cell lines; cited from earlier work"}},
  "data": [
    {"molecule": "O=C1[O][Pt]2([NH][C@@H]3CCCC[C@H]3[NH]2)[O]C1=O", "note": "[OXP, oxaliplatin]", "values": [
      {"measurement": "IC50", "setting": "OE19", "result": "8.76 ± 1.51", "unit": "µM"},
      {"measurement": "IC50", "setting": "MIA PaCa-2", "result": "16.8 ± 1.89", "unit": "µM"},
      {"measurement": "IC50", "setting": "[1]; HCT-116 OXP (OXP resistant), MTT test, 72 h, probit analysis", "result": "23.3 ± 1", "unit": "µM"},
      {"measurement": "R.F. (Resistant factor)", "setting": "[1]; IC50 resistant/parent line: HCT-116 OXP / HCT-116", "result": 19.4},
      {"measurement": "IC50", "setting": "C-32", "result": "1.12 ± 0.42", "unit": "µM"},
      {"measurement": "IC50", "setting": "AGS", "result": "5.32 ± 1.63", "unit": "µM"},
      {"measurement": "IC50", "setting": "G361", "result": "1.14 ± 0.31", "unit": "µM"},
      {"measurement": "IC50", "setting": "U-2 OS", "result": "0.72 ± 0.24", "unit": "µM"},
      {"measurement": "IC50", "setting": "PC-3", "result": "5.23 ± 1.62", "unit": "µM"},
      {"measurement": "IC50", "setting": "[2]", "result": "23.1 ± 1.25", "unit": "µM"},
      {"measurement": "IC50", "setting": "MDA-MB-231", "result": "4.35 ± 1.07", "unit": "µM"},
      {"measurement": "IC50", "setting": "SK-OV-3", "result": "1.43 ± 1.03", "unit": "µM"},
      {"measurement": "IC50", "setting": "HCT-116", "result": "0.76 ± 0.58", "unit": "µM"},
      {"measurement": "IC50", "setting": "Calu-1", "result": "4.23 ± 1.53", "unit": "µM"},
      {"measurement": "IC50", "setting": "IGROV1", "result": "2.56 ± 2.14", "unit": "µM"},
      {"measurement": "IC50", "setting": "[3]", "result": "1.2 ± 0.1", "unit": "µM"},
      {"measurement": "IC50", "setting": "[4]", "result": "25.5 ± 1.65", "unit": "µM"},
      {"measurement": "IC50", "setting": "CaSki", "result": "26.1 ± 3.01", "unit": "µM"},
      {"measurement": "IC50", "setting": "AsPC-1", "result": "23.2 ± 2.64", "unit": "µM"},
      {"measurement": "IC50", "setting": "SK-Hep-1", "result": "17.8 ± 2.63", "unit": "µM"},
      {"measurement": "IC50", "setting": "H157", "result": "25.3 ± 0.52", "unit": "µM"},
      {"measurement": "IC50", "setting": "A2780", "result": "0.55 ± 0.22", "unit": "µM"},
      {"measurement": "IC50", "setting": "SK-BR-3", "result": "8.98 ± 2.64", "unit": "µM"},
      {"measurement": "IC50", "setting": "MEWO", "result": "6.43 ± 1.54", "unit": "µM"},
      {"measurement": "IC50", "setting": "Capan-1", "result": "3.17 ± 0.97", "unit": "µM"},
      {"measurement": "IC50", "setting": "BxPC-3", "result": "4.15 ± 1.06", "unit": "µM"},
      {"measurement": "IC50", "setting": "Hep 3B", "result": "4.32 ± 1.33", "unit": "µM"},
      {"measurement": "IC50", "setting": "COLO 205", "result": "21.1 ± 2.66", "unit": "µM"},
      {"measurement": "IC50", "setting": "Huh-7", "result": "1.12 ± 1.05", "unit": "µM"},
      {"measurement": "IC50", "setting": "T84", "result": "0.33 ± 0.09", "unit": "µM"}
    ]},
    {"molecule": "Cc1cc(C)n(C(C(=O)[O][Cu]([PH](CO)(CO)CO)[PH](CO)(CO)CO)n2nc(C)cc2C)n1", "note": "[[HC(CO2)(pz^Me2)2]Cu[P(CH2OH)3]2]", "values": [
      {"measurement": "antitumor activity in vitro", "setting": "[5]", "result": "significant antitumor activity in vitro"}
    ]}
  ]
}
